Where two headings read alike, the source gives them in different places.

Results on six compounds are retold here after patent US12364261B2, “Liquid sulfonylurea- and Li-salt containing herbicidal compositions” (priority 2016, dated 2025).

Series [1] is described as follows: chemical stability of active ingredient in liquid formulation after storage at 54° C. for two weeks (HPLC, relative to −10° C. control). In kind it is physicochemical. The protocol:
Chemical stability can be determined as a percentage of the sulfonyl urea remaining (e.g. as determined by HPLC) when the liquid composition (e.g. a 50 ml sample of the liquid composition in a 60 ml hermetically sealed Winchester bottle) has been stored at 54° C. for two weeks relative to a corresponding control sample that has been stored at −10° C. for two weeks.
Sulfonylurea was added to a solvent in an amount of 25 wt. %. The mixture was placed in a mill (Eiger Torrance Mini Mill) containing glass beads (1.0-1.25 mm). The suspension was then milled to provide a 25 wt. % sulfonylurea millbase having a particle size (D50) between 2 and 3 μm.
Lithium salt was added to solvent in an amount of 25 wt. % and milled as described above to provide a 25 wt. % lithium salt millbase having a particle size (D50) between 2 and 3 μm.
An appropriate amount of the milled concentrate of sulfonylurea (i) was blended with solvent (optionally containing surfactant) until homogenous, and then further blended with milled concentrate of lithium salt (ii) until homogenous, resulting in the oil dispersions as described in the tables below.
The liquid formulations were stored in tightly closed glass bottles in thermostatically controlled incubators at 54° C. for two weeks with control samples stored at −10° C. After storage, all formulations were analysed for active ingredient content(s) by HPLC. Stability is reported with respect to the amount of active ingredient remaining relative to a corresponding sample stored at −10° C. for two weeks.

For series [2] the following is noted: after 5 days, depending on the selected solvent; U.S. Pat. No. 5,731,264; cited from earlier work.
The conditions of series [3]: one week of storage at 40° C.; WO 2007/027863 A2; cited from earlier work.
Where [4] appears, read: in the presence of lithium acetate.

For `COC(=O)c1c(Cl)nn(C)c1S(=O)(=O)NC(=O)Nc1nc(OC)cc(OC)n1` [halosulfuron-methyl, methyl 3-chloro-5-[[[[(4,6-dimethoxy-2-pyrimidinyl)amino]carbonyl]amino]sulfonyl]-1-methyl-1H-pyrazole-4-carboxylate], the “chemical stability in the presence of lithium acetate” value in series [1] (setting [4]) was “excellent chemical stability”.

Regarding `COc1cc(OC)nc(NC(=O)NS(=O)(=O)N(C)S(C)(=O)=O)n1` [amidosulfuron, N-[[[[(4,6-dimethoxy-2-pyrimdinyl)amino]carbonyl]amino]sulfonyl]-N-methylmethanesulfonamide], the “chemical stability in the presence of lithium acetate” value in series [1] (setting [4]) was “excellent chemical stability”.

Take `COC(=O)c1ccc(I)cc1S(=O)(=O)NC(=O)Nc1nc(C)nc(OC)n1` [iodosulfuron-methyl, methyl 4-iodo-2-[[[[(4-methoxy-6-methyl-1,3,5-triazin-2-yl)amino]carbonyl]amino]sulfonyl]benzoate]: the “chemical stability in the presence of lithium acetate” value in series [1] (setting [4]) is recorded as “excellent chemical stability”. In series [1] (in the presence of lithium acetate, formate, benzoate, octanoate, salicylate, citrate, carbonate, phosphate, chloride and sulphate), the “chemical stability in the presence of lithium salts” value is given as “excellent chemical stability”.

On to `CCOC(=O)c1cnn(C)c1S(=O)(=O)NC(=O)Nc1nc(OC)cc(OC)n1` [pyrazosulfuron-ethyl, ethyl 5-[[[[(4,6-dimethoxy-2-pyrimidinyl)amino]carbonyl]amino]sulfonyl]-1-methyl-1H-pyrazole-4-carboxylate], for which the “chemical stability in the presence of lithium acetate” value in series [1] (setting [4]) is “excellent chemical stability”.

For `COC(=O)c1ccccc1S(=O)(=O)NC(=O)Nc1nc(C)nc(OC)n1` [metsulfuron-methyl, methyl 2-[[[[(4-methoxy-6-methyl-1,3,5-triazin-2-yl)amino]carbonyl]amino]sulfonyl]benzoate], the “chemical stability in the presence of lithium acetate” value in series [1] is “excellent chemical stability”. Besides, the metsulfuron methyl lost in series [2] was 25-30%.

Consider `COC(=O)c1ccccc1S(=O)(=O)NC(=O)N(C)c1nc(C)nc(OC)n1` [tribenuron-methyl, methyl 2-[[[[N-(4-methoxy-6-methyl-1,3,5-triazin-2-yl)-N-methylamino]carbonyl]amino]-sulfonyl]benzoate], for which the tribenuron-methyl lost entry in series [3] is on record as “up to 66.5%”.
